Compound: Cc1nc(C(=O)NCC(=O)O)c(O)c2ccc(Oc3ccccc3)cc12 [FG-4592] + C[C@@H](Oc1cc(-c2cnn(C3CCNCC3)c2)cnc1N)c1c(Cl)ccc(F)c1Cl [Crizotinib] (partner 1 µM)
Assay: relative viability (nuclei count vs DMSO), 5 days (fraction); higher = more cells survive
Settings: first compound 8 µM
Method in brief: (§1)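 After 5 days of treatment, lung cancer cells in 1536-well plates were fixed and stained in a single step (final 0.05% Triton X-100, 1% formaldehyde, 1 ug/ml Hoechst) and their nuclei counted on 4× images. Treatment had been applied by pin tool the day after seeding as one drug alone or as a fixed anchor-drug dose with five library-drug doses (not always all listed) in √10 steps. Relative viability is the nuclei count of treated wells divided by that of vehicle wells, and values are medians of duplicate plates.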

| Cell Line | relative viability |
| --- | --- |
| EKVX | 1.02 |
| LC-2-ad | 0.486 |

Compound: CC1=CC(=C(N1C2=CC=C(C=C2)Cl)C)C(=O)CN3CCCCC3 [IU1-47] + CC(=O)Nc1cccc(-n2c(=O)n(C3CC3)c(=O)c3c(Nc4ccc(I)cc4F)n(C)c(=O)c(C)c32)c1 [Trametinib] (partner 0.02 µM)
Assay: as above
Settings: first compound 0.08 µM
Method in brief: as §1

| Cell Line | relative viability |
| --- | --- |
| HOP-62 | 0.4 |
| HCC-44 | 1.08 |
| LU99A | 0.499 |
| BEN | 1.21 |
| HARA | 0.802 |
| HCC-78 | 0.929 |
| NCI-H322M | 0.547 |
| LCLC-97TM1 | 0.201 |
| NCI-H2009 | 0.257 |
| A-427 | 0.833 |
| NCI-H441 | 0.37 |
| NCI-H661 | 0.576 |
| NCI-H1734 | 0.867 |
| NCI-H460 | 0.134 |
| NCI-H2347 | 0.258 |
| SK-LU-1 | 0.52 |
| 201T | 0.719 |

| Cell Line | relative viability |
| --- | --- |
| NCI-H1915 | 0.296 |
| HCC-827 | 0.565 |
| LXF-289 | 0.689 |
| NCI-H23 | 0.5 |
| NCI-H647 | 0.459 |
| NCI-H1651 | 0.885 |
| EPLC-272H | 0.259 |
| NCI-H1792 | 0.569 |
| NCI-H1355 | 0.432 |
| NCI-H3122 | 0.253 |
| NCI-H1437 | 0.48 |
| NCI-H1755 | 0.794 |
| NCI-H2023 | 0.563 |
| HCC-15 | 0.415 |
| PC-14 | 0.95 |
| EKVX | 0.369 |
| LC-2-ad | 0.951 |

Same assay, conditions: first compound 0.253 µM

| Cell Line | relative viability |
| --- | --- |
| HOP-62 | 0.332 |
| HCC-44 | 1.1 |
| LU99A | 0.355 |
| BEN | 1.1 |
| HCC-78 | 0.812 |
| NCI-H322M | 0.487 |
| LCLC-97TM1 | 0.188 |
| NCI-H2009 | 0.3 |
| A-427 | 0.879 |
| NCI-H441 | 0.338 |
| NCI-H661 | 0.57 |
| NCI-H1734 | 0.67 |
| NCI-H460 | 0.127 |
| NCI-H2347 | 0.282 |
| SK-LU-1 | 0.542 |
| 201T | 0.747 |

| Cell Line | relative viability |
| --- | --- |
| NCI-H1915 | 0.288 |
| HCC-827 | 0.481 |
| LXF-289 | 0.726 |
| NCI-H647 | 0.432 |
| NCI-H1651 | 0.856 |
| EPLC-272H | 0.28 |
| NCI-H1792 | 0.392 |
| NCI-H1355 | 0.441 |
| NCI-H3122 | 0.287 |
| NCI-H1437 | 0.485 |
| NCI-H1755 | 0.756 |
| NCI-H2023 | 0.636 |
| HCC-15 | 0.384 |
| PC-14 | 0.771 |
| EKVX | 0.374 |
| LC-2-ad | 1.02 |

Same assay, conditions: first compound 0.8 µM

| Cell Line | relative viability |
| --- | --- |
| HOP-62 | 0.387 |
| HCC-44 | 1.04 |
| LU99A | 0.606 |
| BEN | 1.23 |
| HARA | 0.929 |
| HCC-78 | 0.814 |
| NCI-H322M | 0.503 |
| LCLC-97TM1 | 0.198 |
| NCI-H2009 | 0.254 |
| A-427 | 0.773 |
| NCI-H441 | 0.395 |
| NCI-H661 | 0.576 |
| NCI-H1734 | 0.593 |
| NCI-H460 | 0.2 |
| NCI-H2347 | 0.3 |
| SK-LU-1 | 0.543 |
| 201T | 0.715 |

| Cell Line | relative viability |
| --- | --- |
| NCI-H1915 | 0.28 |
| HCC-827 | 0.596 |
| LXF-289 | 0.645 |
| NCI-H23 | 0.305 |
| NCI-H647 | 0.489 |
| NCI-H1651 | 0.806 |
| EPLC-272H | 0.264 |
| NCI-H1792 | 0.437 |
| NCI-H1355 | 0.386 |
| NCI-H3122 | 0.268 |
| NCI-H1437 | 0.556 |
| NCI-H1755 | 0.891 |
| NCI-H2023 | 0.607 |
| HCC-15 | 0.384 |
| PC-14 | 0.91 |
| EKVX | 0.375 |
| LC-2-ad | 0.954 |

Same assay, conditions: first compound 2.53 µM

| Cell Line | relative viability |
| --- | --- |
| HOP-62 | 0.383 |
| HCC-44 | 1.08 |
| LU99A | 0.617 |
| BEN | 0.896 |
| HARA | 0.628 |
| HCC-78 | 0.515 |
| NCI-H322M | 0.464 |
| NCI-H2009 | 0.274 |
| A-427 | 0.749 |
| NCI-H441 | 0.595 |
| NCI-H661 | 0.464 |
| NCI-H1734 | 0.647 |
| NCI-H460 | 0.129 |
| NCI-H2347 | 0.304 |
| SK-LU-1 | 0.491 |
| 201T | 0.7 |
| NCI-H1915 | 0.3 |
| HCC-827 | 0.54 |
| LXF-289 | 0.68 |
| NCI-H23 | 0.35 |
| NCI-H647 | 0.405 |
| NCI-H1651 | 0.824 |
| NCI-H1792 | 0.402 |
| NCI-H3122 | 0.309 |
| NCI-H1437 | 0.391 |
| NCI-H1755 | 0.812 |
| NCI-H2023 | 0.608 |
| PC-14 | 1.14 |

Same assay, conditions: first compound 8 µM

| Cell Line | relative viability |
| --- | --- |
| HOP-62 | 0.348 |
| HCC-44 | 0.992 |
| LU99A | 0.543 |
| BEN | 1.15 |
| HARA | 0.774 |
| HCC-78 | 0.939 |
| NCI-H322M | 0.55 |
| LCLC-97TM1 | 0.179 |
| NCI-H2009 | 0.25 |
| A-427 | 0.636 |
| NCI-H441 | 0.439 |
| NCI-H661 | 0.471 |
| NCI-H1734 | 0.645 |
| NCI-H460 | 0.18 |
| NCI-H2347 | 0.302 |
| SK-LU-1 | 0.395 |
| 201T | 0.73 |

| Cell Line | relative viability |
| --- | --- |
| NCI-H1915 | 0.324 |
| HCC-827 | 0.517 |
| LXF-289 | 0.668 |
| NCI-H23 | 0.38 |
| NCI-H647 | 0.443 |
| NCI-H1651 | 0.811 |
| EPLC-272H | 0.258 |
| NCI-H1792 | 0.422 |
| NCI-H1355 | 0.35 |
| NCI-H3122 | 0.222 |
| NCI-H1437 | 0.496 |
| NCI-H1755 | 0.794 |
| NCI-H2023 | 0.557 |
| HCC-15 | 0.469 |
| PC-14 | 0.723 |
| EKVX | 0.296 |
| LC-2-ad | 0.884 |
